ChEMBL document CHEMBL4813981, “Synthesis and in vitro antibacterial activity of new aminothiazole-oximepiperidone cephalosporins” (2021)
In brackets after ≈: the same amount, converted by molar mass.

Assays:
Escherichia coli [1] = assay: Antibacterial activity against Escherichia coli 15-3 overexpressing extended spectrum beta-lactamases assessed as reduction in bacterial growth; type: functional
Escherichia coli [2] = assay: Antibacterial activity against Escherichia coli 15-5 overexpressing extended spectrum beta-lactamases assessed as reduction in bacterial growth; type: functional
Acinetobacter baumannii [3] = assay: Antibacterial activity against Multidrug resistant Acinetobacter baumannii AR 15-4 assessed as reduction in bacterial growth; type: functional
Acinetobacter baumannii [4] = assay: Antibacterial activity against Carbapenem- resistant Acinetobacter baumannii 17-3 assessed as reduction in bacterial growth in the presence of Avibactam; type: functional
Klebsiella pneumoniae [5] = assay: Antibacterial activity against Carbapenem- resistant Klebsiella pneumoniae KR 15-8 assessed as reduction in bacterial growth in the presence of Avibactam; type: functional
Klebsiella pneumoniae [6] = assay: Antibacterial activity against Carbapenem- resistant Klebsiella pneumoniae KR 15-12 assessed as reduction in bacterial growth in the presence of Avibactam; type: functional
Klebsiella pneumoniae [7] = assay: Antibacterial activity against Carbapenem- resistant Klebsiella pneumoniae KR 15-13 assessed as reduction in bacterial growth in the presence of Avibactam; type: functional
Pseudomonas aeruginosa [8] = assay: Antibacterial activity against Carbapenem- resistant Pseudomonas aeruginosa 17-1 assessed as reduction in bacterial growth in the presence of Avibactam; type: functional
Klebsiella pneumoniae [9] = assay: Antibacterial activity against ESBLs positive Carbapenem-sensitive Klebsiella pneumoniae 17-9 assessed as reduction in bacterial growth in the presence of Avibactam; type: functional
Escherichia coli [10] = assay: Antibacterial activity against ESBLs positive Carbapenem- sensitive Escherichia coli 17-17 assessed as reduction in bacterial growth in the presence of Avibactam; type: functional
Escherichia coli [11] = assay: Antibacterial activity against ESBLs positive Carbapenem-sensitive Escherichia coli 17-18 assessed as reduction in bacterial growth in the presence of Avibactam; type: functional
Klebsiella aerogenes [12] = assay: Antibacterial activity against Enterobacter aerogenes 17-2 assessed as reduction in bacterial growth in the presence of Avibactam; type: functional
Pseudomonas aeruginosa [13] = assay: Antibacterial activity against Carbapenem- sensitive Pseudomonas aeruginosa 17-26 assessed as reduction in bacterial growth in the presence of Avibactam; type: functional
Enterobacter cloacae [14] = assay: Bactericidal activity against Enterobacter cloacae 17-3 assessed as reduction in bacterial growth; type: functional
Enterobacter cloacae [15] = assay: Bactericidal activity against Enterobacter cloacae 17-10 assessed as reduction in bacterial growth; type: functional
Klebsiella aerogenes [16] = assay: Bactericidal activity against Enterobacter aerogenes 17-3 assessed as reduction in bacterial growth; type: functional
Pseudomonas aeruginosa [17] = assay: Bactericidal activity against carbapenem-sensitive Pseudomonas aeruginosa 17-26 assessed as reduction in bacterial growth; type: functional
Acinetobacter baumannii [18] = assay: Bactericidal activity against Acinetobacter baumannii NCTC 13304 assessed as reduction in bacterial growth; type: functional
Pseudomonas aeruginosa [19] = assay: Bactericidal activity against Pseudomonas aeruginosa ATCC 27853 assessed as reduction in bacterial growth; type: functional
Enterobacter cloacae [20] = assay: Bactericidal activity against Enterobacter cloacae 17-2 assessed as reduction in bacterial growth in the presence of avibactam; type: functional
Klebsiella aerogenes [21] = assay: Bactericidal activity against Enterobacter aerogenes 17-1 assessed as reduction in bacterial growth in the presence of avibactam; type: functional
Klebsiella aerogenes [22] = assay: Bactericidal activity against Enterobacter aerogenes 15-3 assessed as reduction in bacterial growth in the presence of avibactam; type: functional
Pseudomonas aeruginosa [23] = assay: Bactericidal activity against carbapenem-sensitive Pseudomonas aeruginosa 17-29 assessed as reduction in bacterial growth in the presence of avibactam; type: functional
Klebsiella pneumoniae [24] = assay: Antibacterial activity against ESBLs negative Carbapenem-sensitive Klebsiella pneumoniae 17-16 assessed as reduction in bacterial growth
Pseudomonas aeruginosa [25] = assay: Antibacterial activity against Carbapenem- sensitive Pseudomonas aeruginosa 17-11 assessed as reduction in bacterial growth; type: functional
Klebsiella pneumoniae [26] = assay: Antibacterial activity against ESBLs positive Carbapenem-sensitive Klebsiella pneumoniae 17-5 assessed as reduction in bacterial growth in the presence of Avibactam; type: functional
Escherichia coli [27] = assay: Antibacterial activity against ESBLs positive Carbapenem-sensitive Escherichia coli 17-12 assessed as reduction in bacterial growth in the presence of Avibactam; type: functional
Klebsiella aerogenes [28] = assay: Antibacterial activity against Enterobacter aerogenes 17-3 assessed as reduction in bacterial growth in the presence of Avibactam; type: functional
Pseudomonas aeruginosa [29] = assay: Antibacterial activity against Carbapenem- sensitive Pseudomonas aeruginosa 17-10 assessed as reduction in bacterial growth in the presence of Avibactam; type: functional
Pseudomonas aeruginosa [30] = assay: Bactericidal activity against Carbapenem- resistant Pseudomonas aeruginosa 17-1 assessed as reduction in bacterial growth; type: functional
Klebsiella aerogenes [31] = assay: Bactericidal activity against Enterobacter aerogenes 17-4 assessed as reduction in bacterial growth; type: functional
Klebsiella pneumoniae [32] = assay: Ratio of MBC to MIC for ESBLs positive Carbapenem-sensitive Klebsiella pneumoniae 17-2 assessed as reduction in bacterial growth; type: functional
Klebsiella pneumoniae [33] = assay: Ratio of MBC to MIC for ESBLs positive Carbapenem-sensitive Klebsiella pneumoniae 17-6 assessed as reduction in bacterial growth; type: functional
Klebsiella pneumoniae [34] = assay: Ratio of MBC to MIC for ESBLs negative Carbapenem-sensitive Klebsiella pneumoniae 17-16 assessed as reduction in bacterial growth; type: functional
Klebsiella pneumoniae [35] = assay: Ratio of MBC to MIC for ESBLs negative Carbapenem-sensitive Klebsiella pneumoniae 17-17 assessed as reduction in bacterial growth; type: functional
Escherichia coli [36] = assay: Ratio of MBC to MIC for ESBLs positive Carbapenem-sensitive Escherichia coli 17-3 assessed as reduction in bacterial growth; type: functional
Klebsiella aerogenes [37] = assay: Ratio of MBC to MIC for Enterobacter aerogenes 17-1 assessed as reduction in bacterial growth; type: functional
Klebsiella aerogenes [38] = assay: Ratio of MBC to MIC for Enterobacter aerogenes 17-4 assessed as reduction in bacterial growth; type: functional
Pseudomonas aeruginosa [39] = assay: Ratio of MBC to MIC for carbapenem-sensitive Pseudomonas aeruginosa 17-10 assessed as reduction in bacterial growth; type: functional
Klebsiella pneumoniae [40] = assay: Ratio of MBC to MIC for Carbapenem-resistant Klebsiella pneumoniae KR 15-8 assessed as reduction in bacterial growth in the presence of Avibactam; type: functional
Klebsiella pneumoniae [41] = assay: Ratio of MBC to MIC for ESBLs positive Carbapenem-sensitive Klebsiella pneumoniae 17-6 assessed as reduction in bacterial growth in the presence of Avibactam; type: functional
Klebsiella pneumoniae [42] = assay: Ratio of MBC to MIC for ESBLs negative Carbapenem-sensitive Klebsiella pneumoniae 17-17 assessed as reduction in bacterial growth in the presence of Avibactam; type: functional
Klebsiella aerogenes [43] = assay: Ratio of MBC to MIC for Enterobacter aerogenes 17-1 assessed as reduction in bacterial growth in the presence of Avibactam; type: functional
Klebsiella aerogenes [44] = assay: Ratio of MBC to MIC for Enterobacter aerogenes 15-4 assessed as reduction in bacterial growth in the presence of Avibactam; type: functional
Escherichia coli [45] = assay: Ratio of MBC to MIC for Escherichia coli ATCC 25922 assessed as reduction in bacterial growth in the presence of Avibactam; type: functional
Pseudomonas aeruginosa [46] = assay: Antibacterial activity against Carbapenem- sensitive Pseudomonas aeruginosa 17-30 assessed as reduction in bacterial growth; type: functional
Enterobacter cloacae [47] = assay: Antibacterial activity against Enterobacter cloacae 17-3 assessed as reduction in bacterial growth
Escherichia coli [48] = assay: Antibacterial activity against ESBLs positive Carbapenem-sensitive Escherichia coli 17-10 assessed as reduction in bacterial growth

## CC(C)(O/N=C(\C(=O)N[C@@H]1C(=O)N2C(C(=O)[O-])=C(C[n+]3ccccc3)CS[C@H]12)c1csc(N)n1)C(=O)O [CEFTAZIDIME]
Escherichia coli [1]
  MIC: 8 µg/mL (≈ 14.6 µM)
Escherichia coli [2]
  MIC: 32 µg/mL (≈ 58.5 µM)
Acinetobacter baumannii [3]
  MIC: > 64 µg/mL
Acinetobacter baumannii [4]
  MIC: 8 µg/mL
Klebsiella pneumoniae [5]
  MIC: 4 µg/mL
Klebsiella pneumoniae [6]
  MIC: 4 µg/mL
Klebsiella pneumoniae [7]
  MIC: 1 µg/mL
Pseudomonas aeruginosa [8]
  MIC: 8 µg/mL
Klebsiella pneumoniae [9]
  MIC: 0.5 µg/mL
Escherichia coli [10]
  MIC: 0.5 µg/mL
Escherichia coli [11]
  MIC: 0.5 µg/mL
Klebsiella aerogenes [12]
  MIC: 0.5 µg/mL
Pseudomonas aeruginosa [13]
  MIC: 1 µg/mL
Enterobacter cloacae [14]
  MBC: > 16 µg/mL
Enterobacter cloacae [15]
  MBC: 4 µg/mL (≈ 7.32 µM)
Klebsiella aerogenes [16]
  MBC: 1 µg/mL (≈ 1.83 µM)
Pseudomonas aeruginosa [17]
  MBC: 8 µg/mL (≈ 14.6 µM)
Acinetobacter baumannii [18]
  MBC: > 64 µg/mL
Pseudomonas aeruginosa [19]
  MBC: 1 µg/mL (≈ 1.83 µM)
Enterobacter cloacae [20]
  MBC: 1 µg/mL
Klebsiella aerogenes [21]
  MBC: 1 µg/mL
Klebsiella aerogenes [22]
  MBC: 4 µg/mL
Pseudomonas aeruginosa [23]
  MBC: 4 µg/mL
Klebsiella pneumoniae [24]
  MIC: 2 µg/mL (≈ 3.66 µM)

## Nc1nc(/C(=N/OCc2cc(=O)c(O)cn2O)C(=O)N[C@@H]2C(=O)N3C(C(=O)O)=CCS[C@H]23)cs1
Escherichia coli [1]
  MIC: 64 µg/mL (≈ 126 µM)
Escherichia coli [2]
  MIC: > 64 µg/mL
Acinetobacter baumannii [3]
  MIC: > 64 µg/mL
Pseudomonas aeruginosa [25]
  MIC: 8 µg/mL (≈ 15.7 µM)
Acinetobacter baumannii [4]
  MIC: 16 µg/mL
Klebsiella pneumoniae [5]
  MIC: 4 µg/mL
Klebsiella pneumoniae [6]
  MIC: 4 µg/mL
Klebsiella pneumoniae [7]
  MIC: 2 µg/mL
Pseudomonas aeruginosa [8]
  MIC: 16 µg/mL
Klebsiella pneumoniae [26]
  MIC: 1 µg/mL
Klebsiella pneumoniae [9]
  MIC: 0.5 µg/mL
Escherichia coli [27]
  MIC: 0.25 µg/mL
Escherichia coli [10]
  MIC: 0.5 µg/mL
Escherichia coli [11]
  MIC: 0.5 µg/mL
Klebsiella aerogenes [12]
  MIC: 1 µg/mL
Klebsiella aerogenes [28]
  MIC: 0.5 µg/mL
Pseudomonas aeruginosa [29]
  MIC: 2 µg/mL
Pseudomonas aeruginosa [13]
  MIC: 1 µg/mL
Pseudomonas aeruginosa [30]
  MBC: 64 µg/mL (≈ 126 µM)
Enterobacter cloacae [15]
  MBC: > 8 µg/mL
Klebsiella aerogenes [31]
  MBC: 16 µg/mL (≈ 31.5 µM)
Pseudomonas aeruginosa [17]
  MBC: > 16 µg/mL
Acinetobacter baumannii [18]
  MBC: > 64 µg/mL
Pseudomonas aeruginosa [19]
  MBC: 16 µg/mL (≈ 31.5 µM)
Klebsiella pneumoniae [32]
  Ratio: 1
Klebsiella pneumoniae [33]
  Ratio: 2
Klebsiella pneumoniae [34]
  Ratio: 1
Klebsiella pneumoniae [35]
  Ratio: 2
Escherichia coli [36]
  Ratio: 1
Klebsiella aerogenes [37]
  Ratio: 2
Klebsiella aerogenes [38]
  Ratio: 2
Pseudomonas aeruginosa [39]
  Ratio: 4
Enterobacter cloacae [20]
  MBC: 8 µg/mL
Klebsiella aerogenes [21]
  MBC: 4 µg/mL
Klebsiella aerogenes [22]
  MBC: 16 µg/mL
Pseudomonas aeruginosa [23]
  MBC: 8 µg/mL
Klebsiella pneumoniae [40]
  Ratio: 4
Klebsiella pneumoniae [41]
  Ratio: 2
Klebsiella pneumoniae [42]
  Ratio: 8
Klebsiella aerogenes [43]
  Ratio: 2
Klebsiella aerogenes [44]
  Ratio: 2
Escherichia coli [45]
  Ratio: 2
Pseudomonas aeruginosa [46]
  MIC: 1 µg/mL (≈ 1.97 µM)
Enterobacter cloacae [47]
  MIC: 64 µg/mL (≈ 126 µM)
Escherichia coli [48]
  MIC: 4 µg/mL (≈ 7.87 µM)
Klebsiella pneumoniae [24]
  MIC: 0.5 µg/mL (≈ 0.983 µM)

## C[C@@H](O)[C@H]1C(=O)N2C(C(=O)O)=C(S[C@@H]3CN[C@H](C(=O)N(C)C)C3)[C@H](C)[C@H]12 [MEROPENEM]
Pseudomonas aeruginosa [25]
  MIC: 2 µg/mL (≈ 5.22 µM)
Pseudomonas aeruginosa [46]
  MIC: 2 µg/mL (≈ 5.22 µM)
